Experimental data published in ChEMBL document CHEMBL1136795, “A computational model of binding thermodynamics: the design of cyclin-dependent kinase 2 inhibitors” (J Med Chem, 2003).
pIC50: −log10 of the molar value.

Target: Cyclin-dependent kinase 2 (Homo sapiens, UniProt P24941)
Assay: Inhibition of Cyclin-dependent kinase 2 (CDK2)

pIC50: 5.68
Compound: CN1CCC(c2c(O)cc(O)c3c(=O)cc(Sc4ccccc4Cl)oc23)C(O)C1 (stereo unspecified)
